The values that follow come from ChEMBL document CHEMBL6092147, “Design of inhibitors of SARS-CoV-2 papain-like protease deriving from GRL0617: Structure-activity relationships” (Bioorg Med Chem, 2024).

Experiment [1] deals with T1, Replicase polyprotein 1ab (Severe acute respiratory syndrome coronavirus 2, UniProt P0DTD1). In words: Inhibition of SARS-CoV-2 wild type PLpro extracted from Escherichia coli Rosetta 2(DE3) cells by fluorescence based analysis.
Experiment [2] has as its target T1, Replicase polyprotein 1ab. In words: Inhibition of SARS-CoV-2 PLpro using Ubiquitin-AMC as substrate by enzymatic assay.
The target in experiment [3] is T1, Replicase polyprotein 1ab. As to the kind of experiment: Binding affinity to SARS-CoV-2 Main protease assessed as inhibition constant by SPR analysis. (Surface plasmon resonance follows binding to a sensor surface in real time, without labels.)
For experiment [4], the target named is T1, Replicase polyprotein 1ab. In words: Inhibition of SARS-CoV-2 papain-like protease (PLpro) by enzymatic assay.
For experiment [5], the target named is T1, Replicase polyprotein 1ab. In words: Inhibition of SARS-CoV-2 papain-like protease (PLpro) by FRET analysis.
The target in experiment [6] is T1, Replicase polyprotein 1ab. As to the kind of experiment: Inhibition of C-terminal His-tagged SARS-CoV-2 papain-like protease (PLpro) (1564 to 1876 residues) extracted from Escherichia coli BL21 (DE3) cells using Dabcyl-KTSAVLQ/SGFRKME as substrate incubated for 60 mins by FRET assay.
Experiment [7] concerns the target T1, Replicase polyprotein 1ab. In words: Inhibition of SARS-CoV-2 wild type PLpro (1563 to 1878 residues) extracted from Escherichia coli Rosetta 2 (DE3) cells by Fluorescence polarization assay. (Polarisation of emitted light reports the rotation of a fluorescent probe.)
The target of experiment [8] is T1, Replicase polyprotein 1ab. As to the kind of experiment: Inhibition of N-terminal 6-His-tagged SARS-CoV-2 PLpro BetaCoV/Wuhan/WIV04/2019 (1524 to 1883 residues) extracted from Escherichia coli BL21 (DE3) cells using Dabcyl-KTSAVLQ/SGFRKME as substrate pretreated for 30 mins followed by substrate addition measured for 1 hr by TR-FRET analysis. In general terms: In TR-FRET formats the signal depends on donor and acceptor labels being close together.

In experiment [9] the target is T1, Replicase polyprotein 1ab. As to the kind of experiment: Inhibition of His-tagged SARS-CoV-2 papain-like protease (PLpro) incubated for 30 mins by FRET assay.
Experiment [10] has as its target T1, Replicase polyprotein 1ab. As to the kind of experiment: Inhibition of N-terminal 6His-tagged SARS-CoV-2 wild type PLpro extracted from Escherichia coli BL21 (DE3) cells incubated for 60 mins by FRET assay.
Experiment [11] deals with T1, Replicase polyprotein 1ab. In words: Binding affinity to SARS-CoV-2 3CL protease assessed as dissociation constant by SPR analysis.
Experiment [12] concerns the target T1, Replicase polyprotein 1ab. In words: Inhibition of SARS-CoV-2 3CL protease by FRET assay.
Experiment [13] addresses T1, Replicase polyprotein 1ab. As to the kind of experiment: Binding affinity to SARS-CoV-2 3CL protease extracted from Escherichia coli BL21 (DE3) Rosetta cells assessed as dissociation constant.
For experiment [14], the target named is T1, Replicase polyprotein 1ab. In words: Inhibition of SARS-CoV-2 3CL protease extracted from Escherichia coli BL21 (DE3) Rosetta cells using DabcylKNSTLQSGLRKE-Edan as substrate preincubated for 60 mins followed by substrate addition and measured after 20 mins by FRET assay.

Structures are written as SMILES. pIC50, pKd, pKi: −log10 of the molar value.

Broadly, the pIC50 is the IC50 on a negative log10 scale, so that one unit is a factor of ten. As for `C[C@H](c1cccc2ccccc12)N1CCC(C(=O)NCc2cc(F)cc(NC(=O)N3CCN(C)CC3)c2)CC1`, the pIC50 in experiment [1] is 6.00.

Regarding `Cc1ccc(N)cc1CN[C@H](C)c1cccc2ccccc12`, the negative logarithm of the IC50 (pIC50) in experiment [2] is 4.39.

The term pKi denotes the Ki on a negative log10 scale, so that one unit is a factor of ten. Take `CCn1ccc(-c2cc(-c3cnn(CCOC)c3)cc([C@@H](C)NC(=O)c3cc(OCCN(C)C)ccc3C)c2)n1`: the pKi in experiment [3] was 7.52. In addition, the pIC50 in experiment [4] was 6.80.

The compound `CC(=O)Nc1ccc(C)c(C(=O)NC(C)c2cccc3ccccc23)c1` (stereo unspecified) had a pIC50 in experiment [2] of 4.96.

On to `Cc1ccc(OCCN(C)C)cc1C(=O)N[C@H](C)c1cc(-c2cnn(C)c2)cc(-c2cnn(C)c2)c1`, for which the negative logarithm of the Ki (pKi) in [3] is 7.52.

`Cc1ccc(OCCN(C)C)cc1C(=O)N[C@H](C)c1cc(-c2cccs2)cc(-c2cccs2)c1`: the pKi in [3] was 8.00. In experiment [5], this compound gave a pIC50 of 7.22.

As to `C[C@H](c1cccc2ccccc12)N(C)Cc1ccc2cccc(O)c2n1`, in experiment [6], the pIC50 is less than 4.70.

Compound `COc1cc(CNC(=O)C2CC3(C2)CN([C@H](C)c2cccc4ccccc24)C3)ccn1` had a pIC50 in experiment [7] of 5.27.

`C[C@H](c1cccc2ccccc12)N1CCC(C(=O)NCc2ccc(S(N)(=O)=O)cc2)CC1`: in experiment [8], the pIC50 was 6.22.

For `C[C@H](c1cccc2ccccc12)N(C)Cc1ccc(OCC(N)=O)cc1`, the pIC50 in experiment [9] is 5.55.

In the case of `COc1cc(CNC(=O)C2CCN(C(C)c3cccc4ccccc34)CC2)ccn1` (racemic), the pIC50 in [7] was 5.96.

Regarding `CCOc1ccc2ccccc2c1C(C)N1CCC(C(=O)NCc2ccnc(OC)c2)CC1` (racemic), the negative logarithm of the IC50 (pIC50) in [10] was less than 4.01.

For the compound `COc1cc(CNC(=O)C2CN(C(C)c3cccc4ccccc34)C2)ccn1` (racemic), in experiment [7], the pIC50 is 4.56.

A word on the pKd: it is the negative decadic logarithm of the Kd, by convention in mol/L. With `CCC(C(=O)Nc1cc(NC2CCNCC2)ccc1C)n1cc(Br)cc2nc(SCc3ccc(F)cc3)nc1-2` (racemic), in [11], the negative-log Kd (pKd) is 6.77. In addition, the pIC50 in [12] is 7.30.

Regarding `CCC(C(=O)Nc1cc(NC2CNC2)ccc1C)n1cc(Cl)cc2nc(SCc3ccc(F)cc3)nc1-2` (racemic), the pKd in experiment [11] is 7.00. In addition, the pIC50 in [12] was 7.05.

For the compound `CCC(C(=O)Nc1cc(NC2CCNC2)ccc1C)n1cc(Cl)cc2nc(SCc3ccc(F)cc3)nc1-2` (racemic), the pKd in [11] was 7.00. The compound further gave a pIC50 in experiment [12] of 7.15.

For the compound `CCC(C(=O)Nc1cc(NC2CNC2)ccc1C)n1cc(Br)cc2nc(SCc3ccc(F)cc3)nc1-2` (racemic), the pKd in experiment [11] is 7.00. The pIC50 in experiment [12] is 7.15.

As for `COc1cc(CNC(=O)C2CCN(C(C)c3c(OC)ccc4ccccc34)CC2)ccn1` (racemic), the pIC50 in experiment [10] was less than 4.01.

Consider `CCC(C(=O)Nc1cc(NC2COC2)ccc1C)n1cc(F)cc2nc(SCc3ccc(F)cc3)nc1-2` (racemic), for which the negative logarithm of the Kd (pKd) in experiment [13] was 6.40. The same compound gave a pIC50 in experiment [14] of 6.40.

`COc1cc(CNC(=O)C2CCN(C(C)c3c(C)sc4ccccc34)CC2)ccn1` (racemic) showed a pIC50 in experiment [10] of less than 4.01.

With `CCC(C(=O)Nc1cc(NC2CNC2)ccc1C)n1cc(F)cc2nc(SCc3ccc(F)cc3)nc1-2` (racemic), the pKd in experiment [11] was 6.57. Also, the pIC50 in experiment [12] is 6.70.

On to `CCC(C(=O)Nc1cc(NC2CCOC2)ccc1C)n1cc(Br)cc2nc(SCc3ccc(F)cc3)nc1-2` (racemic), for which, in experiment [13], the pKd was 5.85. In addition, the negative-log IC50 (pIC50) in experiment [14] was 6.30.
